Drawing on US11564923B2, “Compounds and pharmaceutical compositions thereof for the treatment of inflammatory disorders” (Galapagos NV, priority 2017, dated 2023), this text covers IC50 for 9 compounds.

Each structure is given as a SMILES string.

By IC50 is commonly meant the concentration that inhibits the measured activity by half.

Assay [1] deals with T1, Recombinant human TYK2 catalytic domain (amino acids 871-1187) (Homo sapiens, UniProt P29597).
T1 construct: catalytic domain (amino acids 871-1187)
T1 sequence (P29597 871-1187): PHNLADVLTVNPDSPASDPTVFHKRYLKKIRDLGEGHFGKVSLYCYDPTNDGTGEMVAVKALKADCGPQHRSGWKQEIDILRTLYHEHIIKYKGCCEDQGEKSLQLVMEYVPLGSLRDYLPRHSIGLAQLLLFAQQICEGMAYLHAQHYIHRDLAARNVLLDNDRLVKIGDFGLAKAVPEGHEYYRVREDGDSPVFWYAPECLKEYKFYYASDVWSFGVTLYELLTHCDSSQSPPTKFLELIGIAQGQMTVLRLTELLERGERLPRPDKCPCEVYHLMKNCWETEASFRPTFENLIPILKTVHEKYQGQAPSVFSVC
The assay can be described thus: TYK2 ADPglo kinase assay. Note: 12 µM ATP. Format: biochemical. The protocol:
After 120 min at room temperature, reactions were stopped and the remaining ATP is depleted by adding 5 μL/well of ADP Glo Reagent (Promega, catalog number V912B). After 40 min at room temperature, 10 μl Kinase Detection Reagent (Kinase Detection Substrate (Promega, catalog number V914B) dissolved in Kinase Detection Buffer (Promega, catalog number V913B)) is added to convert ADP to ATP and to measure this newly synthesized ATP in a luciferase/luciferin reaction. Readout is performed after 30 min incubation at room temperature using the Envision. Kinase activity is calculated by subtracting the relative light units (RLU) obtained in the presence of a positive control inhibitor (10 μM staurosporine) from the RLU obtained in the presence of vehicle. The ability of a test compound to inhibit this activity (or percentage inhibition) is determined as:
RLU test compound=RLU determined for sample with test compound present
RLU control=RLU determined for sample with positive control inhibitor
RLU vehicle=RLU determined in the presence of vehicle
Dose dilution series were prepared for the compounds enabling the testing of dose-response effects in the TYK2 assay and the calculation of the IC50 for the compound. Each compound is routinely tested at concentration of 20 μM followed by a 1/5 serial dilution, 10 points in a final concentration of 1% DMSO. […] The data are expressed as the average IC50 from the assays.
A general note: ADP-Glo first removes unused ATP, then detects ADP through luciferase.

The subject of assay [2] is IFNα activation of STAT1 in PBMC. The assay is described as follows: IFNα activation of STAT1 in PBMC. Format: cell-based. As to conditions: Homo sapiens; IFNα activation of STAT1 in PBMC; average IC50; read-out: IFNα signaling inhibitory potency IC50. The gist of the method: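 Human PBMC, with red cells lysed by NH4Cl, were pre-treated with compound for 30 min at 37 °C and 5% CO2. They were then stimulated for 30 min with recombinant human IFNα at 5 ng/mL final.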

The subject of assay [3] is IL-12 activation of STAT4 in NK-92 cells. The assay can be described thus: IL-12 activation of STAT4 in NK-92 cells using AphaLISA SureFire technology. The format is cell-based. To be noted: Homo sapiens, NK92; IL-12 activation of STAT4 in NK-92 cells, AlphaLISA SureFire; average IC50; read-out: IL12 pSTAT4 IC50. The gist of the method:
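NK-92 cells, starved of rhIL-2 overnight, were stimulated with rhIL-12 for 30 min at 37 °C with test compounds, then lysed. Phospho-STAT4 (Tyr693) was read by AlphaLISA SureFire. Percent inhibition versus the vehicle-plus-trigger signal was fitted by sigmoidal nonlinear regression to give IC50, averaged over experiments.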
Background: Bead proximity is the source of the signal in Alpha formats.

For assay [4] the test system is unchanged. The assay is described as follows: IL-12 activation of STAT4 in NK-92 cells using MSD as readout. As to conditions: Homo sapiens, NK92; NK-92 cells, rhIL-12 25 ng/mL, MSD readout; read-out: IL12 pSTAT4 IC50. The format is cell-based. The protocol: IL-2 is added freshly to the medium with each medium refreshment step. Cells are cultured in a humidified incubator at 37° C. 5% CO2.
NK-92 cells are pre-incubated with test compounds or vehicle for 30 min at 37° C. 5% CO2. […] NK-92 cells are triggered with rhIL-12 for 45 min at 37° C. 5% CO2.
After 45 min of cytokine stimulation the cells are lysed by addition of 50 μL ice-cold lysis buffer (supplemented with the MSD kit). Plates are frozen at −80° C. for minimal 1 hour to lyse the cells completely. After thawing the levels of phospho-STAT4 are quantified using the Phospho-STAT4 (Tyr693) kit (MSD, Catalogue number K150PAD-2) according to the manufacturer's instructions. Electroluminescent signal is measured on the MSD reader.
The percentage inhibition is calculated as: […]
RLU (trigger/veh): Relative lumescent signal determined in presence of vehicle and trigger
RLU (test compound): Relative luminescent signal determined in presence of test compounds)
PIN values are plotted for compounds tested in dose-response and IC50 values are derived using LIMS Software applying non-linear regression (sigmoidal) curve fitting. The data are expressed as the average IC50 from different experiments.

Assay [5] addresses T2, Recombinant human JAK1 (catalytic domain, amino acids 866-1154) (Homo sapiens, UniProt P23458).
T2 construct: catalytic domain, amino acids 866-1154
The assay is described as follows: JAK1 inhibition assay. Format: biochemical. To be noted: read-out: JAK1 potency IC50.

The target of assay [6] is T1, Recombinant human TYK2 catalytic domain (amino acids 871-1187). The assay is described as follows: TYK2 radioactive assay polyGT substrate. Note: 0.1 µM ATP. Format: biochemical. The essentials:
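Reaction at 30° C. for 120 min, ended with 150 mM phosphoric acid, washed, counted; percent inhibition scaled between vehicle and 10 μM staurosporine cpm.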

In assay [7] the target is T3, Recombinant human JAK2 (catalytic domain, amino acids 808-1132) (Homo sapiens, UniProt O60674).
T3 construct: catalytic domain, amino acids 808-1132
The assay can be described thus: JAK2 inhibition assay. Note: 0.7 µM ATP. The format is biochemical. To be noted: read-out: JAK2 potency IC50.

Assay [8] concerns the target Recombinant human JAK3 catalytic domain (amino acids 781-1124) (Homo sapiens, UniProt P52333). The assay can be described thus: JAK3 inhibition assay. Format: biochemical. The gist of the method:
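Radiometric kinase reaction run 45 min at 30° C., stopped with phosphoric acid; activity as vehicle cpm minus 10 μM staurosporine cpm.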

T3 sequence (O60674 808-1132): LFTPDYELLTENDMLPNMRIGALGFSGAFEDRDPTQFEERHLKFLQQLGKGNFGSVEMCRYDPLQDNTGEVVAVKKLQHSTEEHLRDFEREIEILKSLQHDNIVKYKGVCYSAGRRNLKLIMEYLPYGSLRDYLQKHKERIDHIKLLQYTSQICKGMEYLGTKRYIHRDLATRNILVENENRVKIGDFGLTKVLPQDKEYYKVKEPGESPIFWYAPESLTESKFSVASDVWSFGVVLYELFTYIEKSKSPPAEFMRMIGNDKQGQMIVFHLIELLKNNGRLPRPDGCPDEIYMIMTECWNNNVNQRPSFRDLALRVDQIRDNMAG
T2 sequence (P23458 866-1154): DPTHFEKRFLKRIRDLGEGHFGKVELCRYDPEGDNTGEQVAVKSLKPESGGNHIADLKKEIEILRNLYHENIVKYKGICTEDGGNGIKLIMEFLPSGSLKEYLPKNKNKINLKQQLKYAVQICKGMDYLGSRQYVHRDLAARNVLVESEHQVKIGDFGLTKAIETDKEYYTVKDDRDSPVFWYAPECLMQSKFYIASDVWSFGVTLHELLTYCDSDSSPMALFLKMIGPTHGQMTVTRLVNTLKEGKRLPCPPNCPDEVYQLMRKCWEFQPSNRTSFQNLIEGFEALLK
Sequence of Recombinant human JAK3 catalytic domain (amino acids 781-1124) (P52333 781-1124): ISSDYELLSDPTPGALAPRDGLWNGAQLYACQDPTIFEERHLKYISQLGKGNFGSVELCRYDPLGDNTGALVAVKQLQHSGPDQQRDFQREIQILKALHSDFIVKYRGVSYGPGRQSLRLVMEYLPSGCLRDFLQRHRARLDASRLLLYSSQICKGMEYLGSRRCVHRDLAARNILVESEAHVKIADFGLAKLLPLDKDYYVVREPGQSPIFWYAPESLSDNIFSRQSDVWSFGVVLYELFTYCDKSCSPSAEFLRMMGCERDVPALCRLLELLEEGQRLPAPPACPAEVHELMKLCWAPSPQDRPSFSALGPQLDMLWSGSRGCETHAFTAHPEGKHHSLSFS

On to `Cc1cc(C#N)ncc1Oc1cc(Nc2ccc(N3CCOC(CO)C3)nn2)c2ncn(C)c2n1` (centres unmarked) [Compound 169, 5-[7-[[6-[2-(hydroxymethyl)morpholin-4-yl]pyridazin-3-yl]amino]-3-methylimidazo[4,5-b]pyridin-5-yl]oxy-4-methylpyridine-2-carbonitrile], for which the figures for the concentration for half-maximal inhibition (IC50) in assay [1], in assay [2] and in assay [3] were 1.47 nM, 147 nM and 665 nM, respectively.

In the case of `Cc1cc(C#N)ncc1Oc1cc(Nc2ccc(N3CCCOCC3)nn2)c2ncn(C)c2n1` [Compound 167, 4-methyl-5-[3-methyl-7-[[6-(1,4-oxazepan-4-yl)pyridazin-3-yl]amino]imidazo[4,5-b]pyridin-5-yl]oxypyridine-2-carbonitrile], the results for the IC50 in assay [1], in assay [2] and in assay [3] were 2.55 nM, 129 nM and 88 nM, respectively.

Take `CC1COCCC1N(C)c1cc(Nc2cc(N)ncn2)c2ncn(C)c2n1` (centres unmarked) [Compound 19, N7-(6-Amino-pyrimidin-4-yl)-3,N5-dimethyl-N5-(3-methyl-tetrahydro-pyran-4-yl)-3H-imidazo[4,5-b]pyridine-5,7-diamine]: the half-inhibitory concentration (IC50) came out at 806 nM in assay [4]; 80.9 nM in assay [5]; 10.7 nM in assay [6]; 11.2 nM in assay [7]; 231 nM in assay [8]; 72 nM in assay [3].

Take `Cc1cc(C#N)ncc1Oc1cc(Nc2ccc(S(C)(=O)=O)cn2)c2ncn(C)c2n1` [Compound 58, 4-methyl-5-[3-methyl-7-[(5-methylsulfonyl-2-pyridyl)amino]imidazo[4,5-b]pyridin-5-yl]oxy-pyridine-2-carbonitrile]: the 50% inhibitory concentration (IC50) in assay [2] stood at 88 nM; in assay [4] it was 595 nM; in assay [5] it was 97.8 nM; in assay [6], 7.42 nM; in assay [7], 35.5 nM; in assay [8], 1100 nM.

Take `CCNS(=O)(=O)c1ccc(Nc2cc(Oc3cnc(C#N)cc3C)nc3c2ncn3C)cc1` [Compound 53, 4-[[5-[(6-cyano-4-methyl-3-pyridyl)oxy]-3-methyl-imidazo[4,5-b]pyridin-7-yl]amino]-N-ethyl-benzenesulfonamide]: the IC50 turned out to be 119 nM in assay [2]; 409 nM in assay [4]; 68 nM in assay [5]; 9.22 nM in assay [6]; 72.7 nM in assay [7]; 495 nM in assay [8].

For the compound `Cc1cc(C#N)ncc1Oc1cc(Nc2ccc(N3CCO[C@@H](CO)C3)nn2)c2ncn(C)c2n1` [Compound 163, 5-[7-[[6-[(2R)-2-(hydroxymethyl)morpholin-4-yl]pyridazin-3-yl]amino]-3-methylimidazo[4,5-b]pyridin-5-yl]oxy-4-methylpyridine-2-carbonitrile], the IC50 in assay [1] was determined as 1.06 nM.

`Cc1cc(C#N)ncc1Oc1cc(Nc2ccc(C(F)(F)F)cn2)c2ncn(C)c2n1` [Compound 59, 4-methyl-5-[3-methyl-7-[[5-(trifluoromethyl)-2-pyridyl]amino]imidazo[4,5-b]pyridin-5-yl]oxy-pyridine-2-carbonitrile]: the 50% inhibitory concentration (IC50) came out at 407 nM in assay [2]; 4720 nM in assay [4]; 461 nM in assay [5]; 69.2 nM in assay [6]; 133 nM in assay [7]; 3780 nM in assay [8].

As to `C[C@H](N(C)c1cc(Nc2cc(N)ncn2)c2ncn(C)c2n1)C(C)(C)C` [Compound 12, N7-(6-aminopyrimidin-4-yl)-N5,3-dimethyl-N5-[(1S)-1,2,2-trimethylpropyl]imidazo[4,5-b]pyridine-5,7-diamine], the IC50 in assay [2] amounted to 25 nM; in assay [4], 540 nM; in assay [5], 26.9 nM; in assay [6] it was 1.42 nM; in assay [7] it was 3.04 nM; in assay [8], 36.7 nM.

Turning to `Cc1cc(C#N)ncc1Oc1cc(Nc2ccc(N3CCO[C@H](CO)C3)nn2)c2ncn(C)c2n1` [Compound 165, 5-[7-[[6-[(2S)-2-(hydroxymethyl)morpholin-4-yl]pyridazin-3-yl]amino]-3-methylimidazo[4,5-b]pyridin-5-yl]oxy-4-methylpyridine-2-carbonitrile], the IC50 in assay [1] worked out at 1.09 nM.
